{"source": "paper PMC7955167", "about": "(Structure(London, England:1993), 2021)", "key": {"IRAK3": {"molecular_target": "T1, IRAK3 (Homo sapiens, UniProt Q9Y616)", "T1 construct": "pseudokinase domain, residues 145–454", "T1 sequence (Q9Y616 145-454)": "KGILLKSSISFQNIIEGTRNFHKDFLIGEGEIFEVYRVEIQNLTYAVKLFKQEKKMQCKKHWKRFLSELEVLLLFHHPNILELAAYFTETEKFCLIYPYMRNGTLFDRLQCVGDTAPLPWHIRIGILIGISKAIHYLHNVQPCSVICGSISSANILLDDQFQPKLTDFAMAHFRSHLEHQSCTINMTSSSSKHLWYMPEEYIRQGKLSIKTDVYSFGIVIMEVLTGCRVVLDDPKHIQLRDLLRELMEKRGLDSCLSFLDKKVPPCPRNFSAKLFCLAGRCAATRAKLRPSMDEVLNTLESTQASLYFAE", "test": "thermal shift assay dose response with isothermal analysis at […]°C", "assay_type": "binding"}, "IRAK2": {"molecular_target": "T2, IRAK2 (Homo sapiens, UniProt O43187)", "T2 construct": "pseudokinase domain, residues 192-507", "T2 sequence (O43187 192-507)": "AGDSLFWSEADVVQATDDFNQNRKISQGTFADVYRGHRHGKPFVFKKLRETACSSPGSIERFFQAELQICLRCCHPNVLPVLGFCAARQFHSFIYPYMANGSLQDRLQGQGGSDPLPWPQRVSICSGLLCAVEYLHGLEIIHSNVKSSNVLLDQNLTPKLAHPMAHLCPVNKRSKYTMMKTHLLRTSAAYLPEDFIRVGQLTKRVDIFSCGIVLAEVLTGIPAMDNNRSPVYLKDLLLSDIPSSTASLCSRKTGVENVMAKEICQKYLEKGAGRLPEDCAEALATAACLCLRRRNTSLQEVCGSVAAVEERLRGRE", "test": "thermal shift assay dose response with isothermal analysis at […]°C", "assay_type": "binding"}, "[1]": {"molecular_target": "the molecule itself", "test": "crystal structure; IRAK3_(145-454) at 7-10 mg/mL, 0.1 M citric acid pH 5.0, 1.62 M ammonium sulfate, 20°C, hanging drop; 2.9 Å; three molecules in the asymmetric unit"}, "[2]": {"molecular_target": "the molecule itself", "test": "SEC; analytical gel filtration, Superdex Increase 3.2/300, 20 mM HEPES pH 7.5, 200 mM NaCl, 10% glycerol, 1 mM DTT; 25 μl loaded at 1-5 mg/ml; fractions on SDS-PAGE; monomer to dimer"}}}
{"molecule": "Nc1ncnc2c1ncn2[C@@H]1O[C@H](COP(=O)(O)OP(=O)(O)OP(=O)(O)O)[C@@H](O)[C@H]1O", "note": "[ATP]", "values": [{"measurement": "Kd", "setting": "IRAK3", "value": "~196", "unit": "µM"}, {"measurement": "Kd", "setting": "IRAK2", "value": "9.8 ± 3.8", "unit": "µM"}]}
{"molecule": "IRAK3 pseudokinase domain (residues 145-454), wild type (domain or fragment, human, UniProt Q9Y616 145-454, looked up, Interleukin-1 receptor associated kinase 3 (IRAK3), human, pseudokinase domain, residues 145-454; Construct 6His-TEV-GST-3C-IRAK3 145-454; the 6His-GST tag was cut off with PreScission protease; also called IRAK3_(145-454); IRAK3-PK; source: Sf21 insect cells (baculovirus), purified (Ni-NTA, GSH sepharose, PreScission cleavage, gel filtration); not shown: His6, N-terminal, cleaved; GST, …) KGILLKSSISFQNIIEGTRNFHKDFLIGEGEIFEVYRVEIQNLTYAVKLFKQEKKMQCKKHWKRFLSELEVLLLFHHPNILELAAYFTETEKFCLIYPYMRNGTLFDRLQCVGDTAPLPWHIRIGILIGISKAIHYLHNVQPCSVICGSISSANILLDDQFQPKLTDFAMAHFRSHLEHQSCTINMTSSSSKHLWYMPEEYIRQGKLSIKTDVYSFGIVIMEVLTGCRVVLDDPKHIQLRDLLRELMEKRGLDSCLSFLDKKVPPCPRNFSAKLFCLAGRCAATRAKLRPSMDEVLNTLESTQASLYFAE", "values": [{"measurement": "stoichiometry N", "setting": "[1]", "value": 2}]}
{"molecule": "IRAK3 pseudokinase domain (residues 145-454) E214L (domain or fragment, human, UniProt Q9Y616 145-454, looked up, IRAK3, human, pseudokinase domain, residues 145-454, with E214L; Construct 6His-TEV-GST-3C-IRAK3 145-454 E214L; PDB 6RUU holds the wild-type parent; also called IRAK3_(145-454) E214L; source: Sf21 insect cells (baculovirus), purified (Ni-NTA, GSH sepharose, PreScission cleavage, gel filtration); not shown: His6, N-terminal, cleaved; GST, N-terminal, cleaved) KGILLKSSISFQNIIEGTRNFHKDFLIGEGEIFEVYRVEIQNLTYAVKLFKQEKKMQCKKHWKRFLSELLVLLLFHHPNILELAAYFTETEKFCLIYPYMRNGTLFDRLQCVGDTAPLPWHIRIGILIGISKAIHYLHNVQPCSVICGSISSANILLDDQFQPKLTDFAMAHFRSHLEHQSCTINMTSSSSKHLWYMPEEYIRQGKLSIKTDVYSFGIVIMEVLTGCRVVLDDPKHIQLRDLLRELMEKRGLDSCLSFLDKKVPPCPRNFSAKLFCLAGRCAATRAKLRPSMDEVLNTLESTQASLYFAE", "values": [{"measurement": "stoichiometry N", "setting": "[2]", "value": 2}]}
